Calls of active or inactive are those of the source.
How the values were obtained:
Lepidium sativum [1] = test: Inhibition of shoot length of Lepidium sativum at 0.1 mM after 5 days relative to untreated control; type: functional; settings: 120 h
Lactuca sativa [2] = test: Inhibition of germination of Lactuca sativa cv. Nigra (lettuce) at 0.1 mM after 5 days relative to untreated control; type: functional; settings: for inhibition at 100 µM: 120 h
Solanum lycopersicum [3] = test: Inhibition of root length of Solanum lycopersicum (tomato) at 10 uM after 5 days relative to untreated control; type: functional, organism-based
Lactuca sativa [4] = test: Inhibition of root length of Lactuca sativa cv. Roman (lettuce) at 0.1 mM after 5 days relative to untreated control; type: functional; settings: for inhibition at 100 µM: 120 h
Lactuca sativa [5] = test: Inhibition of shoot length of Lactuca sativa cv. Nigra (lettuce) at 0.1 mM after 5 days relative to untreated control; type: functional; settings: 120 h
Lepidium sativum [6] = test: Inhibition of root length of Lepidium sativum at 0.1 mM after 5 days relative to untreated control; type: functional; settings: 120 h
Solanum lycopersicum [7] = test: Inhibition of germination of Solanum lycopersicum (tomato) at 0.1 mM after 5 days relative to untreated control; type: functional
Allium cepa [8] = test: Inhibition of shoot length of Allium cepa (onion) at 0.1 mM after 5 days relative to untreated control; type: functional; settings: 120 h
Triticum aestivum [9] = test: Stimulation of germination of Triticum aestivum (wheat) at 0.1 mM after 5 days relative to untreated control; type: functional
Solanum lycopersicum [10] = test: Inhibition of shoot length of Solanum lycopersicum (tomato) at 0.1 mM after 5 days relative to untreated control; type: functional; settings: 120 h
Lactuca sativa [11] = test: Stimulation of shoot length of Lactuca sativa cv. Nigra (lettuce) at 0.1 mM after 5 days relative to untreated control; type: functional
Allium cepa [12] = test: Stimulation of germination of Allium cepa (onion) at 0.1 mM after 5 days relative to untreated control; type: functional
Solanum lycopersicum [13] = test: Stimulation of germination of Solanum lycopersicum (tomato) at 0.1 mM after 5 days relative to untreated control; type: functional
Lactuca sativa [14] = test: Stimulation of root length of Lactuca sativa cv. Nigra (lettuce) at 0.1 mM after 5 days relative to untreated control; type: functional
Triticum aestivum [15] = test: Stimulation of shoot length of Triticum aestivum (wheat) at 0.1 mM after 5 days relative to untreated control; type: functional
Triticum aestivum [16] = test: Inhibition of shoot length of Triticum aestivum (wheat) at 0.1 mM after 5 days relative to untreated control; type: functional
Hordeum vulgare [17] = test: Stimulation of shoot length of Hordeum vulgare (barley) at 0.1 mM after 5 days relative to untreated control; type: functional
Solanum lycopersicum [18] = test: Inhibition of shoot length of Solanum lycopersicum (tomato) at 10 uM after 5 days relative to untreated control; type: functional, organism-based
Allium cepa [19] = test: Stimulation of shoot length of Allium cepa (onion) at 0.1 mM after 5 days relative to untreated control; type: functional
Lactuca sativa [20] = test: Stimulation of root length of Lactuca sativa cv. Roman (lettuce) at 0.1 mM after 5 days relative to untreated control; type: functional
Lepidium sativum [21] = test: Stimulation of root length of Lepidium sativum at 0.1 mM after 5 days relative to untreated control; type: functional
Allium cepa [22] = test: Inhibition of germination of Allium cepa (onion) at 0.1 mM after 5 days relative to untreated control; type: functional; settings: for inhibition at 100 µM: 120 h
Hordeum vulgare [23] = test: Stimulation of germination of Hordeum vulgare (barley) at 0.1 mM after 5 days relative to untreated control; type: functional
Lepidium sativum [24] = test: Inhibition of shoot length of Lepidium sativum at 10 uM after 5 days relative to untreated control; type: functional, organism-based
Solanum lycopersicum [25] = test: Stimulation of root length of Solanum lycopersicum (tomato) at 0.1 mM after 5 days relative to untreated control; type: functional
Solanum lycopersicum [26] = test: Stimulation of shoot length of Solanum lycopersicum (tomato) at 0.1 mM after 5 days relative to untreated control; type: functional
Lepidium sativum [27] = test: Inhibition of germination of Lepidium sativum at 10 uM after 5 days relative to untreated control; type: functional, organism-based
Hordeum vulgare [28] = test: Inhibition of root length of Hordeum vulgare (barley) at 0.1 mM after 5 days relative to untreated control; type: functional; settings: 120 h
Triticum aestivum [29] = test: Inhibition of germination of Triticum aestivum (wheat) at 0.1 mM after 5 days relative to untreated control; type: functional
Lepidium sativum [30] = test: Stimulation of germination of Lepidium sativum at 0.1 mM after 5 days relative to untreated control; type: functional
Allium cepa [31] = test: Inhibition of root length of Allium cepa (onion) at 0.1 mM after 5 days relative to untreated control; type: functional; settings: for inhibition at 100 µM: 120 h
Hordeum vulgare [32] = test: Stimulation of root length of Hordeum vulgare (barley) at 0.1 mM after 5 days relative to untreated control; type: functional
Lactuca sativa [33] = test: Inhibition of shoot length of Lactuca sativa cv. Roman (lettuce) at 0.1 mM after 5 days relative to untreated control; type: functional; settings: 120 h
Hordeum vulgare [34] = test: Inhibition of germination of Hordeum vulgare (barley) at 0.1 mM after 5 days relative to untreated control; type: functional; settings: 120 h
Lactuca sativa [35] = test: Stimulation of shoot length of Lactuca sativa cv. Roman (lettuce) at 0.1 mM after 5 days relative to untreated control; type: functional
Lactuca sativa [36] = test: Stimulation of germination of Lactuca sativa cv. Roman (lettuce) at 0.1 mM after 5 days relative to untreated control; type: functional
Solanum lycopersicum [37] = test: Inhibition of germination of Solanum lycopersicum (tomato) at 10 uM after 5 days relative to untreated control; type: functional, organism-based
Lactuca sativa [38] = test: Inhibition of germination of Lactuca sativa cv. Roman (lettuce) at 0.1 mM after 5 days relative to untreated control; type: functional; settings: for inhibition at 100 µM: 120 h
Hordeum vulgare [39] = test: Inhibition of shoot length of Hordeum vulgare (barley) at 0.1 mM after 5 days relative to untreated control; type: functional
Triticum aestivum [40] = test: Inhibition of root length of Triticum aestivum (wheat) at 0.1 mM after 5 days relative to untreated control; type: functional; settings: for inhibition at 100 µM: 120 h
Allium cepa [41] = test: Stimulation of root length of Allium cepa (onion) at 0.1 mM after 5 days relative to untreated control; type: functional
Lactuca sativa [42] = test: Stimulation of germination of Lactuca sativa cv. Nigra (lettuce) at 0.1 mM after 5 days relative to untreated control; type: functional
Triticum aestivum [43] = test: Stimulation of root length of Triticum aestivum (wheat) at 0.1 mM after 5 days relative to untreated control; type: functional
Lepidium sativum [44] = test: Stimulation of shoot length of Lepidium sativum at 0.1 mM after 5 days relative to untreated control; type: functional
Solanum lycopersicum [45] = test: Inhibition of root length of Solanum lycopersicum (tomato) at 0.1 mM after 5 days relative to untreated control; type: functional; settings: 120 h
Lepidium sativum [46] = test: Inhibition of germination of Lepidium sativum at 0.1 mM after 5 days relative to untreated control; type: functional
Lepidium sativum [47] = test: Inhibition of root length of Lepidium sativum at 10 uM after 5 days relative to untreated control; type: functional, organism-based
Lactuca sativa [48] = test: Inhibition of root length of Lactuca sativa cv. Nigra (lettuce) at 0.1 mM after 5 days relative to untreated control; type: functional; settings: 120 h
Hordeum vulgare [49] = test: Inhibition of germination of Hordeum vulgare (barley) at 10 nM after 5 days relative to untreated control; type: functional; settings: 120 h
Allium cepa [50] = test: Inhibition of germination of Allium cepa (onion) at 1 uM after 5 days relative to untreated control; type: functional; settings: 120 h
Solanum lycopersicum [51] = test: Stimulation of root length of Solanum lycopersicum (tomato) at 10 nM after 5 days relative to untreated control; type: functional

C[C@@]12CCC[C@]3(C)C4=CC(=O)OCC4=C[C@@H](OC1=O)[C@@H]23
>40%: Activity (Lactuca sativa [11]) | Activity (Solanum lycopersicum [13]) | Activity (Lactuca sativa [14]) | Activity (Hordeum vulgare [17]) | Activity (Allium cepa [19]) | Activity (Lactuca sativa [20]) | Activity (Lepidium sativum [21]) | Activity (Solanum lycopersicum [25]) | Activity (Solanum lycopersicum [26]) | Activity (Lepidium sativum [30]) | Activity (Hordeum vulgare [32]) | Activity (Lactuca sativa [35]) | Activity (Allium cepa [41]) | Activity (Lepidium sativum [44])
active: inhibition (Solanum lycopersicum [3]) | inhibition (Solanum lycopersicum [18]) | inhibition (Lepidium sativum [24]) | inhibition (Lepidium sativum [27]) | inhibition (Solanum lycopersicum [37]) | inhibition (Lepidium sativum [47])
20%: Activity (Allium cepa [12]) | inhibition at 100 µM (Allium cepa [22]) | Activity (Hordeum vulgare [23]) | inhibition at 100 µM (Hordeum vulgare [34]) | Activity (Lactuca sativa [36]) | inhibition at 100 µM (Lactuca sativa [38]) | inhibition at 100 µM (Triticum aestivum [40]) | Activity (Triticum aestivum [43])
inactive: inhibition (Lactuca sativa [2]) | Activity (Triticum aestivum [9]) | inhibition (Triticum aestivum [29]) | Activity (Lactuca sativa [42])
> 40%: inhibition at 100 µM (Lepidium sativum [1]) | inhibition at 100 µM (Lactuca sativa [4]) | inhibition at 100 µM (Lactuca sativa [5]) | inhibition at 100 µM (Lepidium sativum [6]) | inhibition at 100 µM (Solanum lycopersicum [7]; 120 h) | inhibition at 100 µM (Allium cepa [8]) | inhibition at 100 µM (Solanum lycopersicum [10]) | inhibition at 100 µM (Hordeum vulgare [28]) | inhibition at 100 µM (Allium cepa [31]) | inhibition at 100 µM (Lactuca sativa [33]) | inhibition at 100 µM (Hordeum vulgare [39]; 120 h) | inhibition at 100 µM (Solanum lycopersicum [45]) | inhibition at 100 µM (Lepidium sativum [46]; 120 h) | inhibition at 100 µM (Lactuca sativa [48])
< 20%: inhibition at 100 µM (Triticum aestivum [16]; 120 h)
<20%: Activity (Triticum aestivum [15])

C[C@]1(C(=O)O)CCC[C@]2(C)C3=CC(=O)OC[C@]34O[C@@H]4C[C@@H]12
-72%: inhibition at 0.01 µM (Hordeum vulgare [49])
> 40%: inhibition at 100 µM (Hordeum vulgare [34])
inactive: inhibition (Lactuca sativa [4]) | inhibition (Solanum lycopersicum [7]) | Activity (Triticum aestivum [9]) | Activity (Allium cepa [12]) | Activity (Solanum lycopersicum [13]) | Activity (Triticum aestivum [15]) | inhibition (Triticum aestivum [16]) | Activity (Hordeum vulgare [17]) | Activity (Lactuca sativa [20]) | inhibition (Allium cepa [22]) | inhibition (Triticum aestivum [29]) | Activity (Lepidium sativum [30]) | inhibition (Allium cepa [31]) | inhibition (Hordeum vulgare [39]) | inhibition (Triticum aestivum [40]) | Activity (Allium cepa [41]) | Activity (Triticum aestivum [43]) | inhibition (Lepidium sativum [46])
< 20%: inhibition at 100 µM (Lactuca sativa [2]) | inhibition at 100 µM (Lactuca sativa [5]) | inhibition at 100 µM (Lepidium sativum [6]) | inhibition at 100 µM (Allium cepa [8]) | inhibition at 100 µM (Solanum lycopersicum [10]) | inhibition at 100 µM (Lactuca sativa [33]) | inhibition at 100 µM (Lactuca sativa [38]) | inhibition at 100 µM (Lactuca sativa [48])
20%: inhibition at 100 µM (Lepidium sativum [1]) | Activity (Solanum lycopersicum [25]) | inhibition at 100 µM (Hordeum vulgare [28]) | Activity (Hordeum vulgare [32]) | Activity (Lepidium sativum [44]) | inhibition at 100 µM (Solanum lycopersicum [45])
>40%: Activity (Hordeum vulgare [23])
<20%: Activity (Lactuca sativa [11]) | Activity (Lactuca sativa [14]) | Activity (Allium cepa [19]) | Activity (Lepidium sativum [21]) | Activity (Solanum lycopersicum [26]) | Activity (Lactuca sativa [35]) | Activity (Lactuca sativa [36]) | Activity (Lactuca sativa [42])

COC(=O)[C@@]1(C)CCC[C@@]2(C)[C@H]1CC[C@H]1COC(=O)C[C@@H]12
< 20%: inhibition at 100 µM (Lactuca sativa [4]) | inhibition at 100 µM (Lepidium sativum [6]) | inhibition at 100 µM (Allium cepa [31]) | inhibition at 100 µM (Triticum aestivum [40]) | inhibition at 100 µM (Lactuca sativa [48])
>40%: Activity (Hordeum vulgare [23]) | Activity (Solanum lycopersicum [25]) | Activity (Hordeum vulgare [32])
60%: Activity (Solanum lycopersicum [51])
inactive: inhibition (Solanum lycopersicum [7]) | Activity (Triticum aestivum [9]) | Activity (Solanum lycopersicum [13]) | Activity (Triticum aestivum [15]) | inhibition (Triticum aestivum [16]) | Activity (Hordeum vulgare [17]) | inhibition (Triticum aestivum [29]) | Activity (Lepidium sativum [30]) | Activity (Lactuca sativa [36]) | inhibition (Lactuca sativa [38]) | inhibition (Hordeum vulgare [39]) | inhibition (Lepidium sativum [46])
> 40%: inhibition at 100 µM (Hordeum vulgare [28]) | inhibition at 100 µM (Hordeum vulgare [34]) | inhibition at 100 µM (Solanum lycopersicum [45])
-46%: inhibition at 1 µM (Allium cepa [50])
20%: inhibition at 100 µM (Lepidium sativum [1]) | inhibition at 100 µM (Lactuca sativa [2]) | inhibition at 100 µM (Lactuca sativa [5]) | inhibition at 100 µM (Allium cepa [8]) | inhibition at 100 µM (Solanum lycopersicum [10]) | Activity (Lactuca sativa [11]) | Activity (Allium cepa [12]) | Activity (Allium cepa [19]) | inhibition at 100 µM (Allium cepa [22]) | Activity (Solanum lycopersicum [26]) | inhibition at 100 µM (Lactuca sativa [33]) | Activity (Lactuca sativa [35]) | Activity (Lactuca sativa [42]) | Activity (Lepidium sativum [44])
<20%: Activity (Lactuca sativa [14]) | Activity (Lactuca sativa [20]) | Activity (Lepidium sativum [21]) | Activity (Allium cepa [41]) | Activity (Triticum aestivum [43])

Source: ChEMBL document CHEMBL3046208, “Natural and synthetic podolactones with potential use as natural herbicide models” (2000)
